Measured values taken from PubChem BioAssay AID1597 (NINDS Approved Drug Screening Program, 2009).
Results filed as inconclusive are left out.

Tested on: Drosophila SCA1 polyglutamine model, toxicity suppression
Experiment: Reduction of SCA1 polyglutamine toxicity, EC50 from dose response in whole drosophila (AID 1597)

SMILES	EC50
Cc1cc(C(C)(C)C)cc(C)c1CC1=NCCN1	250 nM
C[N+](C)(C)CC(=O)[O-]	3000 nM
CN1CCOC(c2ccccc2)c2ccccc2C1 (centres undefined)	50 nM
N#C/C(=C\c1ccc(O)cc1)C(=O)O	50 nM
C[C@@H]1CC2C3CCC4=CC(=O)C=C[C@]4(C)[C@@]3(F)[C@@H](O)C[C@]2(C)[C@@]1(O)C(=O)COP(=O)(O)O (some centres undefined)	750 nM
NC(Cc1cc(I)c(Oc2ccc(O)c(I)c2)c(I)c1)C(=O)O (centres undefined)	5000 nM
OCC(S)CS (centres undefined)	300 nM
C[N+](C)(C)CCOC(N)=O	3000 nM
C=C1C2CC[C@H]3[C@]4(C)C[C@H](OC5OC(CO)C(OS(=O)(=O)O)C(OS(=O)(=O)O)C5OC(=O)CC(C)C)C[C@@H](C(=O)O)[C@H]4CC[C@]3(C2)[C@H]1O (some centres undefined)	225 nM
CCCCCCCCCCCCCCCC(=O)OC/C=C(C)/C=C/C=C(C)/C=C/C1=C(C)CCCC1(C)C	275 nM
CC(=O)OCC(=O)[C@H]1CCC2C3CCC4=CC(=O)CC[C@]4(C)C3CC[C@@]21C (some centres undefined)	3000 nM
C[C@@H]1O[C@@H](O[C@H]2[C@H](Oc3cc(O)c4c(c3)O[C@H](c3ccc(O)cc3)CC4=O)O[C@H](CO)[C@@H](O)[C@@H]2O)[C@H](O)[C@H](O)[C@H]1O	5000 nM
NS(=O)(=O)c1cc(C2(O)NC(=O)c3ccccc32)ccc1Cl (centres undefined)	5000 nM
CC(N)CCCC(C)(C)O (centres undefined)	50 nM
